Values of other authors in patent US20220220558A1, “METHODS AND SYSTEMS FOR PROGNOSIS OF A PATIENT'S RESPONSE TO TREATMENT OF ANDROGENETIC SKIN DISORDERS” (priority 2008, published 2022).

System: female androgenetic alopecia
Conditions: clinical trials

Structure (SMILES): CC(C)(C)NC(=O)[C@H]1CC[C@H]2[C@@H]3CC[C@H]4NC(=O)C=C[C@]4(C)[C@H]3CC[C@]12C [finasteride]
- affect on hair re-growth in women: statistically not significant
